Where two headings read alike, the source gives them in different places.
Experiments:
Type in all cases: in vivo
[1] = test system: velvetleaf (Abutilon theophrasti); experiment: Test C pre-/postemergence greenhouse test, plant response rating 0-100; conditions: Abutilon theophrasti, post-emergence, Postemergence
Procedure, shortened: (§1)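 Seeds were sown in a loam soil–sand blend and sprayed preemergence with test chemicals in a non-phytotoxic solvent mixture containing surfactant; postemergence plants in peat/vermiculite medium were treated at 2–18 cm (1- to 4-leaf stage). After 13 to 15 days in the greenhouse, injury was rated visually against untreated controls.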

[2] = test system: ragweed (common ragweed, Ambrosia elatior); experiment: as above; conditions: Ambrosia artemisiifolia, post-emergence, Postemergence
Procedure, shortened: as §1

[3] = test system: morningglory (Ipomoea coccinea); experiment: as above; conditions: Ipomoea, post-emergence, Postemergence
Procedure, shortened: as §1

[4] = test system: galium (catchweed bedstraw, Galium aparine); experiment: as above; conditions: Galium, post-emergence, Postemergence
Procedure, shortened: as §1

[5] = test system: Italian ryegrass (Lolium multiflorum); experiment: as above; conditions: Lolium multiflorum, post-emergence, Postemergence
Procedure, shortened: as §1

[6] = test system: velvetleaf (Abutilon theophrasti); experiment: Test A pre-/postemergence greenhouse herbicide test, visual injury rating 0-100; conditions: for pest or weed control at 500 g/ha: 500 g ai/ha
Procedure, shortened: (§2)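 Seeds sown in loam soil–sand blend; preemergence directed soil spray and, simultaneously, postemergence spray on plants 2 to 10 cm tall at one- to two-leaf stage. Compounds formulated in non-phytotoxic solvent mixture with surfactant. Injury rated visually versus untreated controls after ~10 days in greenhouse.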

[7] = test system: wheat (Triticum aestivum); experiment: as above
Procedure, shortened: as §2

[8] = test system: barnyardgrass (Echinochloa crus-galli); experiment: as above; conditions: for pest or weed control at 500 g/ha: 500 g ai/ha
Procedure, shortened: as §2

[9] = test system: large (Lg) crabgrass (Digitaria sanguinalis); experiment: as above; conditions: for pest or weed control at 500 g/ha: 500 g ai/ha
Procedure, shortened: as §2

[10] = test system: pigweed (Amaranthus retroflexus); experiment: as above; conditions: for pest or weed control at 500 g/ha: 500 g ai/ha
Procedure, shortened: as §2

[11] = test system: morningglory (Ipomoea spp.); experiment: as above; conditions: for pest or weed control at 500 g/ha: 500 g ai/ha
Procedure, shortened: as §2

[12] = test system: giant foxtail (Setaria faberii); experiment: as above; conditions: for pest or weed control at 500 g/ha: 500 g ai/ha
Procedure, shortened: as §2

[13] = test system: corn (Zea mays); experiment: as above; conditions: for plant injury at 500 g/ha: 500 g ai/ha
Procedure, shortened: as §2

Q: What does the source list for `CCCn1cc(C(=O)c2ccccc2)c(-c2cc(Cl)cc(Cl)c2)n1` [Compound 61, [3-(3,5-dichlorophenyl)-1-propyl-1H-pyrazol-4-yl]phenylmethanone]?
A: pest or weed control at 62 g/ha ([1]; 62 g ai/ha, read-out: Plant response rating (0 to 100), Velvetleaf): 40%; pest or weed control at 125 g/ha ([1]; 125 g ai/ha, read-out: Plant response rating (0 to 100), Velvetleaf): 75%; pest or weed control at 250 g/ha ([1]; 250 g ai/ha, scale 0 to 100): 75%; pest or weed control at 62 g/ha ([2]; 62 g ai/ha, read-out: Plant response rating (0 to 100), Ragweed): 10%; pest or weed control at 125 g/ha ([2]; 125 g ai/ha, read-out: Plant response rating (0 to 100), Ragweed): 40%; pest or weed control at 250 g/ha ([2]; 250 g ai/ha, scale 0 to 100): 40%; pest or weed control at 62 g/ha ([3]; 62 g ai/ha, read-out: Plant response rating (0 to 100), Morningglory): 0%; pest or weed control at 125 g/ha ([3]; 125 g ai/ha, read-out: Plant response rating (0 to 100), Morningglory): 0%; pest or weed control at 250 g/ha ([3]; 250 g ai/ha, scale 0 to 100): 0%; pest or weed control at 31 g/ha ([4]; 31 g ai/ha, read-out: Plant response rating (0 to 100), Galium): 0%; pest or weed control at 62 g/ha ([4]; 62 g ai/ha, read-out: Plant response rating (0 to 100), Galium): 0%; pest or weed control at 125 g/ha ([4]; 125 g ai/ha, read-out: Plant response rating (0 to 100), Galium): 0%; pest or weed control at 250 g/ha ([4]; 250 g ai/ha, scale 0 to 100): 0%; pest or weed control at 62 g/ha ([5]; 62 g ai/ha, read-out: Plant response rating (0 to 100), Ryegrass, Italian): 0%; pest or weed control at 125 g/ha ([5]; 125 g ai/ha, read-out: Plant response rating (0 to 100), Ryegrass, Italian): 0%; pest or weed control at 250 g/ha ([5]; 250 g ai/ha, scale 0 to 100): 0%; pest or weed control at 125 g/ha ([6]; Abutilon theophrasti, post-emergence, 240 h, Postemergence, 125 g ai/ha, read-out: Plant response rating (0 to 100 scale), Velvetleaf): 80%; pest or weed control at 500 g/ha ([6]; Abutilon theophrasti, post-emergence, 240 h, Postemergence, read-out: Plant response rating (0 to 100 scale), Velvetleaf): 90%; pest or weed control at 500 g/ha ([6]; Abutilon theophrasti, pre-emergence, 240 h, Preemergence, read-out: Plant response rating (0 to 100 scale), Velvetleaf): 40%; Velvetleaf plant response rating (0 = no effect, 100 = complete control) ([6]; Preemergence, 125 g ai/ha): 0; Wheat plant response rating (0 = no effect, 100 = complete control) ([7]; Preemergence, 125 g ai/ha): 0; plant injury at 125 g/ha ([7]; Triticum aestivum, post-emergence, 240 h, Postemergence, 125 g ai/ha, read-out: Plant response rating (0 to 100 scale), Wheat): 0%; plant injury at 500 g/ha ([7]; Triticum aestivum, post-emergence, 240 h, Postemergence, 500 g ai/ha, read-out: Plant response rating (0 to 100 scale), Wheat): 0%; pest or weed control at 125 g/ha ([8]; Echinochloa crus-galli, post-emergence, 240 h, Postemergence, 125 g ai/ha, read-out: Plant response rating (0 to 100 scale), Barnyardgrass): 0%; pest or weed control at 500 g/ha ([8]; Echinochloa crus-galli, post-emergence, 240 h, Postemergence, read-out: Plant response rating (0 to 100 scale), Barnyardgrass): 0%; pest or weed control at 500 g/ha ([8]; Echinochloa crus-galli, pre-emergence, 240 h, Preemergence, read-out: Plant response rating (0 to 100 scale), Barnyardgrass): 0%; Barnyardgrass plant response rating (0 = no effect, 100 = complete control) ([8]; Preemergence, 125 g ai/ha): 0; pest or weed control at 125 g/ha ([9]; Digitaria sanguinalis, post-emergence, 240 h, Postemergence, 125 g ai/ha, read-out: Plant response rating (0 to 100 scale), Crabgrass, Large): 0%; pest or weed control at 500 g/ha ([9]; Digitaria sanguinalis, post-emergence, 240 h, Postemergence, read-out: Plant response rating (0 to 100 scale), Crabgrass, Large): 0%; pest or weed control at 500 g/ha ([9]; Digitaria sanguinalis, pre-emergence, 240 h, Preemergence, read-out: Plant response rating (0 to 100 scale), Crabgrass, Large): 0%; Crabgrass, Large plant response rating (0 = no effect, 100 = complete control) ([9]; Preemergence, 125 g ai/ha): 0; pest or weed control at 125 g/ha ([10]; Amaranthus retroflexus, post-emergence, 240 h, Postemergence, 125 g ai/ha, read-out: Plant response rating (0 to 100 scale), Pigweed): 80%; pest or weed control at 500 g/ha ([10]; Amaranthus retroflexus, post-emergence, 240 h, Postemergence, read-out: Plant response rating (0 to 100 scale), Pigweed): 90%; pest or weed control at 500 g/ha ([10]; Amaranthus retroflexus, pre-emergence, 240 h, Preemergence, read-out: Plant response rating (0 to 100 scale), Pigweed): 90%; Pigweed plant response rating (0 = no effect, 100 = complete control) ([10]; Preemergence, 125 g ai/ha): 0; pest or weed control at 125 g/ha ([11]; Ipomoea, post-emergence, 240 h, Postemergence, 125 g ai/ha, read-out: Plant response rating (0 to 100 scale), Morningglory): 0%; pest or weed control at 500 g/ha ([11]; Ipomoea, post-emergence, 240 h, Postemergence, read-out: Plant response rating (0 to 100 scale), Morningglory): 0%; pest or weed control at 500 g/ha ([11]; Ipomoea, pre-emergence, 240 h, Preemergence, read-out: Plant response rating (0 to 100 scale), Morningglory): 0%; Morningglory plant response rating (0 = no effect, 100 = complete control) ([11]; Preemergence, 125 g ai/ha): 0; Foxtail, Giant plant response rating (0 = no effect, 100 = complete control) ([12]; Preemergence, 125 g ai/ha): 0; pest or weed control at 125 g/ha ([12]; Setaria faberi, post-emergence, 240 h, Postemergence, 125 g ai/ha, read-out: Plant response rating (0 to 100 scale), Foxtail, Giant): 0%; pest or weed control at 500 g/ha ([12]; Setaria faberi, post-emergence, 240 h, Postemergence, read-out: Plant response rating (0 to 100 scale), Foxtail, Giant): 0%; pest or weed control at 500 g/ha ([12]; Setaria faberi, pre-emergence, 240 h, Preemergence, read-out: Plant response rating (0 to 100 scale), Foxtail, Giant): 0%; Corn plant response rating (0 = no effect, 100 = complete control) ([13]; Preemergence, 125 g ai/ha): 0; plant injury at 125 g/ha ([13]; Zea mays, post-emergence, 240 h, Postemergence, 125 g ai/ha, read-out: Plant response rating (0 to 100 scale), Corn): 0%; plant injury at 500 g/ha ([13]; Zea mays, post-emergence, 240 h, Postemergence, read-out: Plant response rating (0 to 100 scale), Corn): 0%; plant injury at 500 g/ha ([13]; Zea mays, pre-emergence, 240 h, Preemergence, read-out: Plant response rating (0 to 100 scale), Corn): 0%

Source: patent US10167262B2, “Herbicidal substituted 3-arylpyrazoles” (FMC CORPORATION, priority 2014, dated 2019)
